Molecular target: T1, CDK2/Cyclin E (Homo sapiens, UniProt P24941)
T1 construct: The open reading frames of CDK2 and Cyclin E were isolated; made in house; host or cells: Sf21 (Spodoptera frugiperda) insect cells, baculovirus co-infection; the GST-Rb substrate was made in E. coli BL21 (DE3) pLysS
Assay: in vitro kinase assay (Scintillation Proximity Assay), CDK2/Cyclin E, GST-Rb substrate
Format: biochemical
Conditions: in-vitro SPA kinase assay, read-out: CDK2 inhibitory activity IC50
Method: The compounds were tested in an in vitro kinase assay in 96 well format using Scintillation Proximity Assay (SPA—obtained from Amersham) for measuring incorporation of [γ-33-P]-Adenosine Triphosphate into a test substrate (GST-Retinoblastoma protein; GST-Rb). In each well was placed the compound to be tested (diluted in DMSO and water to correct concentrations) and in control wells either roscovitine as an inhibitor control or DMSO as a positive control. […]
The plates were sealed with Topseal-S plate sealers, left for two hours then spun at 2500 rpm, 1124×g., for 5 minutes. The plates were read on a Topcount for 30 seconds per well. […]
E. coli paste was resuspended in 10 ml/g of NETN buffer (50 mM Tris pH 7.5, 120 mM NaCl, 1 mM EDTA, 0.5% v/v NP-40, 1 mM PMSF, 1 ug/ml leupeptin, 1 ug/ml aprotinin and 1 ug/ml pepstatin) and sonicated for 2×45 seconds per 100 ml homogenate. […] The final product was analysed by Sodium Dodeca Sulfate (SDS) PAGE (Polyacrylamide gel) using 8-16% Tris-Glycine gels (Novex, San Diego, USA).
The open reading frames of CDK2 and Cyclin E were isolated by reverse transcriptase-PCR using HeLa cell and activated T cell mRNA as a template and cloned into the insect expression vector pVL1393 (obtained from Invitrogen 1995 catalogue number: V1392-20). […]

IC50: 49 nM
Structure (SMILES): Cc1ncc(-c2ccnc(Nc3ccc(N4CCOCC4)nc3)n2)n1C(C)C [Example 22, 4-(1-Isopropyl-2-methyl-1H-imidazol-5-yl)-N-(6-morpholin-4-ylpyridin-3-yl)pyrimidin-2-amine]

— US20090233928A1, “IMIDAZOLO-5-YL-2-ANILO-PYRIMIDINES AS AGENTS FOR THE INHIBITION OF CELL PROLIFERATION” (priority 2005, published 2009)
